Values quoted from earlier work in patent US20090291152A1, “DIBENZOTHIAZEPINE DERIVATIVES” (Concert Pharmaceuticals Inc., priority 2006, published 2009).

Columns and labels:
[1] = patients with hepatic impairment
[2] = majority of the metabolites

increase in AUC [1]: 3 fold
increase in Cmax [1]: 3 fold
metabolites excreted in the urine [2]: 73%
SMILES: OCCOCCN1CCN(C2=Nc3ccccc3Sc3ccccc32)CC1 [quetiapine, 11-[4-[2-(2-Hydroxyethoxy)ethyl]piperazin-1-yl]dibenzo[b,f][1,4]thiazepine]
